According to patent US10260068B2, “Prophylactic agent and therapeutic agent for fibrodysplasia ossificans progressiva” (Sumitomo Dainippon Pharma Co., Ltd., priority 2014, dated 2019):
Numbering of substitutions follows the chain as printed. Each block holds one substance with its values, some of them ahead of it. d = 2'-deoxy (DNA); r = 2'-OH (RNA)

Key:
[1] = system: BMP responsive sequence; experiment: Luciferase reporter after siRNA knockdown of ACVR1 or BMPR1A in FOP patient derived cells treated with activin A; type: cell-based, human; details: activin A 16 hours
Method: Patient iPS cell line-derived mesenchymal stem cell-like cells were prepared by the same method as Example 1. The cells were transfected with a Firefly luciferase reporter plasmid having the BMP responsive sequence in the promoter region, a plasmid having a nucleic acid sequence coding for Renilla luciferase downstream of the CMV promoter, as an internal standard, and siRNA for ACVR1 or BMPR1A, using a Lipofectamine 2000 (product of Invitrogen Corp.), for knockdown of ACVR1 or BMPR1A expression. BMPR1A is a type I receptor that transmits the BMP signal. The siRNA used for knockdown was siRNA purchased from Applied Biosystems, having two different sequences for each gene (Catalog Nos. ACVR1:S975, S976, BMPR1A:S281, S282). The cells were also cultured for 16 hours with addition of activin A in the same manner as Example 1. The cells were then solubilized and the luciferase activity was measured. In FIG. 5, the bar graph indicates the mean values for each treated group, and the error bars represent S.D. Here, the sequences of the siRNA used for the test were S975: sense strand: 5′-GGAUCAUUCGUGUACAUCAtt-3′ (SEQ ID NO: 37), antisense strand: 5′-UGAUGUACACGAAUGAUCCaa-3′ (SEQ ID NO: 38), S976: sense strand: 5′-GUUGCUCUCCGAAAAUUUAtt-3′ (SEQ ID NO: 39), antisense strand: 5′-UAAAUUUUCGGAGAGCAACtc-3′ (SEQ ID NO: 40), S281: sense strand: 5′-GGCCGAUAUGGAGAAGUAUtt-3′ (SEQ ID NO: 41), antisense strand: 5′-AUACUUCUCCAUAUCGGCCtt-3′ (SEQ ID NO: 42), S282: sense strand: 5′-GAAUCUGGAUAGUAUGCUUtt-3′ (SEQ ID NO: 43), antisense strand: 5′-AAGCAUACUAUCCAGAUUCtg-3′ (SEQ ID NO: 44). The sequence portions printed in lowercase represent the overhang portions, as portions where the ribose backbone has been replaced with a deoxyribose backbone.

[2] = system: FOP patient derived cells; experiment: Evaluation of binding inhibitors: chondrocyte differentiation of FOP patient derived cells in copresence of human activin A; type: cell-based; details: copresence of 30 ng/mL human activin A, 6 days; vs activin-treated group
Method: Patient iPS cell line-derived mesenchymal stem cell-like cells were prepared by the same method as Example 1. The mesenchymal stem cell-like cells were cultured for 6 days by the same method as Example 3, for differentiation to chondrocytes. The effect of each factor on differentiation to chondrocytes was examined, with neutralizing antibody for human activin A (product of R&D Systems, Inc., trade name: Human/Mouse/Rat Activin A βA subunit Antibody), follistatin (product of R&D Systems, Inc., trade name: Recombinant Human Follistatin 315 as 30-344), follistatin-like 3 (product of R&D Systems, Inc., trade name: Recombinant Human Follistatin-related Gene Protein/FLRG), ACVR2A-Fc chimeric protein (product of R&D Systems, Inc., trade name: Recombinant Human Activin RIIA Fc Chimera (CHO)), or ACVR2B-Fc chimeric protein (product of R&D Systems, Inc., trade name: Recombinant Human Activin RIIB Fc Chimera), in the copresence of 30 ng/mL of human activin A. The ACVR2A-Fc chimeric protein is a fusion protein in which a polypeptide fragment having the amino acid sequence of positions 20 to 134 of the amino acid sequence listed as SEQ ID NO: 12, and the Fc region of the human-derived antibody, are bonded via a linker sequence (Ile-Glu-Gly-Arg-Met-Asp). The ACVR2B-Fc chimeric protein is a fusion protein in which a polypeptide fragment having the amino acid sequence of positions 19 to 134 of the amino acid sequence listed as SEQ ID NO: 14, and the Fc region of the human-derived antibody, are bonded via a linker sequence (Ile-Glu-Gly-Arg-Met-Asp). The extent of differentiation to chondrocytes was evaluated by Alcian blue staining and sulfated glycosaminoglycan assay, similar to Example 3. In FIG. 6(B), the bar graph indicates the mean values for each treated group, and the error bars represent S.D.

[3] = molecular target: T1, wild type ACVR1 (Homo sapiens, UniProt Q04771); experiment: Luciferase reporter (BMP responsive sequence) transcription activity in gene-corrected clone derived cells; type: cell-based; details: ligand 1, 10, 100 ng/mL, 16 hours
T1 construct: an iPS cell line with the ACVR1 gene mutation repaired to the normal type (wild type) by gene repair by a BAC knockin vector; endogenous in cells; host or cells: mesenchymal stem cell-like cells differentiated from the gene-corrected iPS cell clone
T1 sequence (Q04771 21-509): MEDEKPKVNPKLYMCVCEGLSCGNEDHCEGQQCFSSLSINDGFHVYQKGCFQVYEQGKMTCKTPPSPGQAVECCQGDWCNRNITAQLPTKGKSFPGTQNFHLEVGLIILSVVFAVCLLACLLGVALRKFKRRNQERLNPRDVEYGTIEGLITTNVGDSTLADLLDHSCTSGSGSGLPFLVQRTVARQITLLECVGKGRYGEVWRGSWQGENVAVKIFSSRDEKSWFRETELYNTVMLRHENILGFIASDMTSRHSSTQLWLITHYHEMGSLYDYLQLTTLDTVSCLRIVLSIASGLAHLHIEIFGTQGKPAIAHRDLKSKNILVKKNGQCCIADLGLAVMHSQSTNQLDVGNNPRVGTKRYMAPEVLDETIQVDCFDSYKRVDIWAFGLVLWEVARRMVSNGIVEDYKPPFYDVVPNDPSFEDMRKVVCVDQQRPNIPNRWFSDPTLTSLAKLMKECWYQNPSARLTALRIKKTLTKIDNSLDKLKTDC
Source text: (§1) Following the method of Yamanaka et al. (Cell, 2007, 131 (5), […]), FOP patient-derived iPS cells (hereunder also referred to as “patient-derived iPS cell line”) were established. The patient cells were confirmed to be cells having a typical FOP-associated mutation in the ACVR1 gene. The mutation is a substitution of the 206th arginine residue of the amino acid sequence of ACVR1 (the amino acid sequence listed as SEQ ID NO: 10) with a histidine residue. Next, for use as a control, an iPS cell line with the ACVR1 gene mutation repaired to the normal type (wild type) by gene repair by a BAC knockin vector (hereunder also referred to as “gene-corrected iPS cell clone” or “gene-rescued iPS cell clone”) was established.
(§2) The patient-derived iPS cell line and gene-corrected iPS cell line were cultured on the matrix of a Matrigel coated plate (trade name: Growth Factor Reduced (GFR)BD Matrigel® by Becton & Dickinson), using mTeSR1 (Stem Cell Technologies) for 2 days under feeder-free conditions. Next, using serum-free medium [F12 Nutrient Mixture (product of Gibco)/Iscove's Modified Dulbecco's Medium (IMDM) (product of Sigma-Aldrich Japan, KK.)/0.5% bovine serum albumin (BSA) (product of Sigma-Aldrich Japan, KK.)/1% Chemically Defined Lipid (CD-Lipid) (product of Gibco, trade name: Chemically Defined Lipid Concentrate)/15 μg/mL apotransferrin (product of Sigma-Aldrich Japan, KK., trade name: apo-Transferrin human)/7 μg/mL insulin (product of Wako Pure Chemical Industries, Ltd., trade name: Insulin, Human, recombinant)/0.45 mM 1-Thioglycerol (product of Sigma-Aldrich Japan, KK.)] with addition of 10 μM SB-431542 (product of Selleck Chemicals) and 1 μM CHIR99021 (product of Wako Pure Chemical Industries, Ltd.), the patient-derived iPS cell line and gene-corrected iPS cell line were further cultured for 1 week under feeder-free conditions for differentiation to neural crest cells. […]
(§3) After mixing Firefly luciferase reporter plasmid having the BMP responsive sequence in the promoter region (J. Biol. Chem., 2002, 277(7), 4883-4891) and a plasmid having a nucleic acid sequence coding for Renilla luciferase downstream from CMV promoter, as an internal standard (product of Promega Corp., trade name: phRL-CMV Vector), FuGene® HD (Promega Corp.) was used for transfection into the mesenchymal stem cell-like cells. […] Next, the luciferase activity was measured according to the protocol provided with a Dual-Glo Luciferase Assay System (product of Promega Corp.). The luminescence was detected using an EnVision Multilabel Counter (product of Perkin-Elmer). […]

[4] = molecular target: T2, FOP patient-derived ACVR1 (Homo sapiens, UniProt Q04771, R206H); experiment: Luciferase reporter (BMP responsive sequence) transcription activity via ACVR1 in FOP patient derived cells; type: cell-based; details: ligand 1, 10, 100 ng/mL, 16 hours, significant at 10 and 100 ng/mL vs untreated group
T2 construct: The patient cells were confirmed to be cells having a typical FOP-associated mutation in the ACVR1 gene; endogenous in cells; host or cells: mesenchymal stem cell-like cells differentiated from an FOP patient-derived iPS cell line
T2 sequence (Q04771 21-509 R206H): T1 sequence (Q04771 21-509) with R186H
Source text: as §1, §2, §3

Substance: ACVR1-1: siRNA for ACVR1 (Applied Biosystems S975), SEQ ID NO: 37/38 (chain 1 GGAUCAUUCGUGUACAUCATT; chain 2 UGAUGUACACGAAUGAUCCAA; sugars from the 5' end r19 d2, backbone not given here)
transcription activation of the BMP responsive sequence by human activin A after siRNA knockdown [1]: disappeared

Substance: ACVR1-2: siRNA for ACVR1 (Applied Biosystems S976), SEQ ID NO: 39/40 (chain 1 GUUGCUCUCCGAAAAUUUATT; chain 2 UAAAUUUUCGGAGAGCAACTC; sugars from the 5' end r19 d2, backbone not given here)
transcription activation of the BMP responsive sequence by human activin A after siRNA knockdown [1]: disappeared

Substance: ACVR2A-Fc chimeric protein: Fusion of positions 20 to 134 of SEQ ID NO: 12 with human antibody Fc region via linker Ile-Glu-Gly-Arg-Met-Asp
differentiation of FOP patient derived cells to chondrocytes (Alcian blue staining, sulfated glycosaminoglycan assay) [2]: inhibited

Substance: BMPR1A-1: siRNA for BMPR1A (Applied Biosystems S281), SEQ ID NO: 41/42 (chain 1 GGCCGAUAUGGAGAAGUAUTT; chain 2 AUACUUCUCCAUAUCGGCCTT; sugars from the 5' end r19 d2, backbone not given here)
transcription activation of the BMP responsive sequence by human activin A after siRNA knockdown [1]: not affected

Substance: BMPR1A-2: siRNA for BMPR1A (Applied Biosystems S282), SEQ ID NO: 43/44 (chain 1 GAAUCUGGAUAGUAUGCUUTT; chain 2 AAGCAUACUAUCCAGAUUCTG; sugars from the 5' end r19 d2, backbone not given here)
transcription activation of the BMP responsive sequence by human activin A after siRNA knockdown [1]: not affected

transcription activity via ACVR1 (firefly/Renilla luciferase activity, BMP responsive sequence) [3]: not seen | transcription activity via ACVR1 (firefly/Renilla luciferase activity, BMP responsive sequence) [4]: significantly increased
Substance: human activin AB: Recombinant Human Activin AB (R&D Systems); heterodimer of βA chain and βB chain

transcription activity via ACVR1 (firefly/Renilla luciferase activity, BMP responsive sequence) [3]: not seen | transcription activity via ACVR1 (firefly/Renilla luciferase activity, BMP responsive sequence) [4]: significantly increased
Substance: human activin B: Recombinant Human Activin B (R&D Systems); homodimer of βB chains
